Results: publication PMC5421785, “Citrullination only infrequently impacts peptide binding to HLA class II MHC” (PLoS ONE, 2017)
Read-outs that look alike come from different tables or passages of the source. Square brackets hold non-standard residues; d marks the D form. Peptide text beside a SMILES is read from it. Cit = NC(=O)NCCC[C@H](N)C(=O)O

Tests used:
HLA-DRB1*04:01 = target: T1, HLA-DRB1*04:01 (Homo sapiens, UniProt P01903+P01911, A100K/A169T/F76Y/I96L/K127E/L162R/M171V/N62H/P40V/Q125Y/R42H/S133A/S149N/S66Y/V115G/V209L/W38E); experiment: HLA class II peptide binding, inhibition of radiolabeled peptide binding to purified MHC; conditions: for IC50: read-out: DRB1*04:01 binding capacity, Cit peptide (IC50 nM)
T1 construct: EBV transformed homozygous cell lines were used as sources of MHC molecules; endogenous in cells; host or cells: EBV transformed homozygous cell lines

HLA-DRB1*01:01 = target: T2, HLA-DRB1*01:01 (Homo sapiens, UniProt P01903+P01911, A100R/D57E/F55L/F60I/F76Y/I96L/L162R/M171V/P40L/Q125E/R42F/V115G/Y59C); experiment: as above; conditions: for IC50: read-out: DRB1*01:01 binding capacity, Cit peptide (IC50 nM)
T2 construct: EBV transformed homozygous cell lines were used as sources of MHC molecules; endogenous in cells; host or cells: EBV transformed homozygous cell lines

[1] = citrullinated 15-mer (X), purified MHC, inhibition of radiolabeled peptide binding, dash = IC50 >40,000 nM
[2] = citrullinated 15-mer peptide (X = citrulline), purified HLA-DRB1*04:01
[3] = citrullinated 15-mer peptide (X = citrulline), purified HLA-DRB1*01:01
[4] = ratio of WT IC50 to Cit IC50, >1 = citrullination increases binding

Row | IC50 (HLA-DRB1*04:01; [1]) | IC50 (HLA-DRB1*01:01; [1]) | IC50 (HLA-DRB1*04:01; [2]) | IC50 (HLA-DRB1*01:01; [3]) | DRB1*04:01 binding capacity, WT/cit ratio (HLA-DRB1*04:01; [4]) | DRB1*01:01 binding capacity, WT/cit ratio (HLA-DRB1*01:01; [4]) | SMILES
1 | 357 nM | 93 nM |  |  |  |  | CC(C)C[C@H](NC(=O)[C@H](CO)NC(=O)[C@H](Cc1ccc(O)cc1)NC(=O)[C@@H](NC(=O)[C@H](CCCNC(=N)N)NC(=O)[C@@H](NC(=O)[C@H](CO)NC(=O)[C@@H](NC(=O)[C@@H](NC(=O)[C@@H](NC(=O)[C@H](Cc1ccc(O)cc1)NC(=O)[C@H](CO)NC(=O)[C@H](CCCNC(N)=O)NC(=O)[C@H](CO)NC(=O)[C@@H](N)CO)C(C)C)[C@@H](C)O)[C@@H](C)O)[C@@H](C)O)[C@@H](C)O)C(=O)O [SSXSYVTTSTRTYSL] (H-SS[Cit]SYVTTSTRTYSL-OH)
2 |  |  | > 40000 nM | 493 nM |  |  | CSCC[C@H](NC(=O)[C@@H](NC(=O)CNC(=O)[C@@H]1CCCN1C(=O)[C@H](CCC(N)=O)NC(=O)CNC(=O)[C@@H](N)CCCNC(N)=O)C(C)C)C(=O)NCC(=O)N[C@@H](Cc1ccccc1)C(=O)N1CCC[C@H]1C(=O)NCC(=O)N1CCC[C@H]1C(=O)N[C@@H](CCCCN)C(=O)NCC(=O)N[C@@H](C)C(=O)O [XGQPGVMGFPGPKGA] (H-[Cit]GQPGVMGFPGPKGA-OH)
3 |  |  | > 40000 nM | > 40000 nM | 1.0 | 1.0 | C[C@H](NC(=O)CNC(=O)[C@H](CCCCN)NC(=O)[C@@H]1CCCN1C(=O)CNC(=O)[C@H](CC(=O)O)NC(=O)[C@H](CCCCN)NC(=O)CNC(=O)[C@H](CO)NC(=O)[C@@H]1CCCN1C(=O)CN)C(=O)N[C@@H](CCCNC(N)=O)C(=O)NCC(=O)N[C@@H](CC(=O)O)C(=O)N[C@@H](CO)C(=O)O [GPSGKDGPKGAXGDS] (H-GPSGKDGPKGA[Cit]GDS-OH; N-terminus and C-terminus assumed)
